Measured values taken from ChEMBL document CHEMBL5055633, “Amphipathic Barbiturates as Mimics of Antimicrobial Peptides and the Marine Natural Products Eusynstyelamides with Activity against Multi-resistant Clinical Isolates” (J Med Chem, 2021).

Legend:
HepG2 = test: Cytotoxicity against human HepG2 cells assessed as reduction in cell viability incubated for 24 hrs by colorimetric tetrazolium assay; type: functional, cell-based; details: HepG2, 24 h
[1] = Hemolytic activity in human erythrocytes incubated for 1 hr by microplate reader; type: functional, cell-based; details: erythrocyte
Pseudomonas aeruginosa [2] = test: Antimicrobial activity against Pseudomonas aeruginosa PAO1 assessed as reduction in bacterial growth incubated for 48 hrs by microdilution susceptibility test; type: functional
Escherichia coli [3] = test: Antimicrobial activity against Escherichia coli ATCC 25922 assessed as reduction in bacterial growth incubated for 48 hrs by microdilution susceptibility test; type: functional
[4] = system: Corynebacterium glutamicum; test: Antimicrobial activity against Corynebacterium glutamicum ATCC 13032 assessed as reduction in bacterial growth incubated for 48 hrs by microdilution susceptibility test; type: functional
Staphylococcus aureus [5] = test: Antimicrobial activity against Staphylococcus aureus ATCC 9144 assessed as reduction in bacterial growth incubated for 48 hrs by microdilution susceptibility test; type: functional
MRC5 = test: Cytotoxicity against human MRC5 cells assessed as reduction in cell viability incubated for 24 hrs by colorimetric tetrazolium assay; type: functional, cell-based; details: MRC5, 24 h
Staphylococcus aureus [6] = test: Antimicrobial activity against extended spectrum-lactamase-carbapenemas producing Staphylococcus aureus N315 assessed as reduction in bacterial growth incubated for 48 hrs by microdilution method; type: functional
Staphylococcus aureus [7] = test: Antimicrobial activity against extended spectrum-lactamase-carbapenemas producing Staphylococcus aureus NCTC 10442 assessed as reduction in bacterial growth incubated for 48 hrs by microdilution method; type: functional
Staphylococcus aureus [8] = test: Antimicrobial activity against extended spectrum-lactamase-carbapenemas producing Staphylococcus aureus strain 85/2082 assessed as reduction in bacterial growth incubated for 48 hrs by microdilution method; type: functional
Staphylococcus aureus [9] = test: Antimicrobial activity against extended spectrum-lactamase-carbapenemas producing Staphylococcus aureus strain WIS assessed as reduction in bacterial growth incubated for 48 hrs by microdilution method; type: functional
Staphylococcus aureus [10] = test: Antimicrobial activity against extended spectrum-lactamase-carbapenemas producing Staphylococcus aureus strain IHT 99040 assessed as reduction in bacterial growth incubated for 48 hrs by microdilution method; type: functional
Enterococcus faecium [11] = test: Antimicrobial activity against extended spectrum-lactamase-carbapenemas producing Enterococcus faecium strain 50673722 assessed as reduction in bacterial growth incubated for 48 hrs by microdilution method; type: functional
Enterococcus faecium [12] = test: Antimicrobial activity against extended spectrum-lactamase-carbapenemas producing Enterococcus faecium strain 50901530 assessed as reduction in bacterial growth incubated for 48 hrs by microdilution method; type: functional
Enterococcus faecium [13] = test: Antimicrobial activity against extended spectrum-lactamase-carbapenemas producing Enterococcus faecium strain K36-18 assessed as reduction in bacterial growth incubated for 48 hrs by microdilution method; type: functional
Enterococcus faecium [14] = test: Antimicrobial activity against extended spectrum-lactamase-carbapenemas producing Enterococcus faecium strain 50758899 assessed as reduction in bacterial growth incubated for 48 hrs by microdilution method; type: functional
Enterococcus faecium [15] = test: Antimicrobial activity against extended spectrum-lactamase-carbapenemas producing Enterococcus faecium strain TUH.50-22 assessed as reduction in bacterial growth incubated for 48 hrs by microdilution method; type: functional
Escherichia coli [16] = test: Antimicrobial activity against oxacillinase-producing Escherichia coli 50579417 assessed as reduction in bacterial growth incubated for 48 hrs by microdilution method; type: functional
Escherichia coli [17] = test: Antimicrobial activity against verona integron-encoded metallo-beta-lactamase-29-producing Escherichia coli 50639799 assessed as reduction in bacterial growth incubated for 48 hrs by microdilution method; type: functional
Escherichia coli [18] = test: Antimicrobial activity against New Delhi metallo-beta lactamase-1 producing Escherichia coli 50676002 assessed as reduction in bacterial growth incubated for 48 hrs by microdilution method; type: functional
Escherichia coli [19] = test: Antimicrobial activity against New Delhi metallo-beta lactamase-1 producing Escherichia coli 50739822 assessed as reduction in bacterial growth incubated for 48 hrs by microdilution method; type: functional
Escherichia coli [20] = test: Antimicrobial activity against imipenem-type carbapenemase-26 producing Escherichia coli 50857972 assessed as reduction in bacterial growth incubated for 48 hrs by microdilution method; type: functional
Pseudomonas aeruginosa [21] = test: Antimicrobial activity against verona integron-encoded metallo-beta-lactamase-2 producing Pseudomonas aeruginosa K34-7 assessed as reduction in bacterial growth incubated for 48 hrs by microdilution method; type: functional
Pseudomonas aeruginosa [22] = test: Antimicrobial activity against verona integron-encoded metallo-beta-lactamase-4 producing Pseudomonas aeruginosa K34-73 assessed as reduction in bacterial growth incubated for 48 hrs by microdilution method; type: functional
Pseudomonas aeruginosa [23] = test: Antimicrobial activity against imipenem-type carbapenemase-14 producing Pseudomonas aeruginosa K44-24 assessed as reduction in bacterial growth incubated for 48 hrs by microdilution method; type: functional
Pseudomonas aeruginosa [24] = test: Antimicrobial activity against New Delhi metallo-beta lactamase-1 producing Pseudomonas aeruginosa 50692172 assessed as reduction in bacterial growth incubated for 48 hrs by microdilution method; type: functional
Pseudomonas aeruginosa [25] = test: Antimicrobial activity against verona integron-encoded metallo-beta-lactamase producing Pseudomonas aeruginosa 50692520 assessed as reduction in bacterial growth incubated for 48 hrs by microdilution method; type: functional
[26] = Antimicrobial activity against carbapenemase producing Klebsiella pneumoniae K47-25 assessed as reduction in bacterial growth incubated for 48 hrs by microdilution method; type: functional
[27] = Antimicrobial activity against New Delhi metallo-beta lactamase-1 Klebsiella pneumoniae K66-45 assessed as reduction in bacterial growth incubated for 48 hrs by microdilution method; type: functional
[28] = Antimicrobial activity against New Delhi metallo-beta lactamase-1 and oxacillinase -181 producing Klebsiella pneumoniae 50531633 assessed as reduction in bacterial growth incubated for 48 hrs by microdilution method; type: functional
[29] = Antimicrobial activity against oxacillinase-245 producing Klebsiella pneumoniae 50625602 assessed as reduction in bacterial growth incubated for 48 hrs by microdilution method; type: functional
[30] = Antimicrobial activity against verona integron-encoded metallo-beta-lactamase -1 producing Klebsiella pneumoniae 50667959 assessed as reduction in bacterial growth incubated for 48 hrs by microdilution method; type: functional
Acinetobacter baumannii [31] = test: Antimicrobial activity against oxacillinase-58 producing Acinetobacter baumannii K12-21 assessed as reduction in bacterial growth incubated for 48 hrs by microdilution method; type: functional
Acinetobacter baumannii [32] = test: Antimicrobial activity against oxacillinase-23 producing Acinetobacter baumannii K44-35 assessed as reduction in bacterial growth incubated for 48 hrs by microdilution method; type: functional
Acinetobacter baumannii [33] = test: Antimicrobial activity against oxacillinase-23 producing Acinetobacter baumannii K47-42 assessed as reduction in bacterial growth incubated for 48 hrs by microdilution method; type: functional
Acinetobacter baumannii [34] = test: Antimicrobial activity against oxacillinase-24 producing Acinetobacter baumannii K55-13 assessed as reduction in bacterial growth incubated for 48 hrs by microdilution method; type: functional
Acinetobacter baumannii [35] = test: Antimicrobial activity against oxacillinase-23 producing Acinetobacter baumannii K63-58 assessed as reduction in bacterial growth incubated for 48 hrs by microdilution method; type: functional

Compound | IC50 (HepG2) [µg/mL] | EC50 [1] [µg/mL] | MIC (Pseudomonas aeruginosa [2]) [µg/mL] | MIC (Escherichia coli [3]) [µg/mL] | MIC [4] [µg/mL] | MIC (Staphylococcus aureus [5]) [µg/mL] | IC50 (MRC5) [µg/mL] | MIC (Staphylococcus aureus [6]) [µg/mL] | MIC (Staphylococcus aureus [7]) [µg/mL] | MIC (Staphylococcus aureus [8]) [µg/mL] | MIC (Staphylococcus aureus [9]) [µg/mL] | MIC (Staphylococcus aureus [10]) [µg/mL] | MIC (Enterococcus faecium [11]) [µg/mL] | MIC (Enterococcus faecium [12]) [µg/mL] | MIC (Enterococcus faecium [13]) [µg/mL] | MIC (Enterococcus faecium [14]) [µg/mL] | MIC (Enterococcus faecium [15]) [µg/mL] | MIC (Escherichia coli [16]) [µg/mL] | MIC (Escherichia coli [17]) [µg/mL] | MIC (Escherichia coli [18]) [µg/mL] | other results
CC(C)(C)c1ccc(CC2(Cc3ccc(C(C)(C)C)cc3)C(=O)N(CCCCN)C(=O)N(CCCCN)C2=O)cc1.O=C(O)C(F)(F)F.O=C(O)C(F)(F)F | 3 | 145 | 8 | 4 | 1 | 4 | 1 | 8 | 8 | 8 | 8 | 8 | 8 | 4 | 8 | 8 | 8 | 8 | 8 | 4 | MIC (Escherichia coli [19]): 8 µg/mL; MIC (Escherichia coli [20]): 4 µg/mL; MIC (Pseudomonas aeruginosa [21]): > 32 µg/mL; MIC (Pseudomonas aeruginosa [22]): > 32 µg/mL; MIC (Pseudomonas aeruginosa [23]): > 32 µg/mL; MIC (Pseudomonas aeruginosa [24]): > 32 µg/mL; MIC (Pseudomonas aeruginosa [25]): > 32 µg/mL; MIC [26]: > 32 µg/mL; MIC [27]: 32 µg/mL; MIC [28]: 16 µg/mL; MIC [29]: 16 µg/mL; MIC [30]: 32 µg/mL; MIC (Acinetobacter baumannii [31]): 16 µg/mL; MIC (Acinetobacter baumannii [32]): 32 µg/mL; MIC (Acinetobacter baumannii [33]): 16 µg/mL; MIC (Acinetobacter baumannii [34]): 16 µg/mL; MIC (Acinetobacter baumannii [35]): 16 µg/mL
CC(C)(C)c1ccc(CC2(Cc3ccc(C(C)(C)C)cc3)C(=O)N(CCCCNC(=N)N)C(=O)N(CCCCNC(=N)N)C2=O)cc1.O=C(O)C(F)(F)F.O=C(O)C(F)(F)F | 28 | 77 | 4 | 2 | < 0.13 | 1 | 14 | 2 | 2 | 2 | 2 | 2 | 2 | 4 | 2 | 2 | 2 | 4 | 4 | 4 | MIC (Escherichia coli [19]): 4 µg/mL; MIC (Escherichia coli [20]): 4 µg/mL; MIC (Pseudomonas aeruginosa [21]): 16 µg/mL; MIC (Pseudomonas aeruginosa [22]): 8 µg/mL; MIC (Pseudomonas aeruginosa [23]): 16 µg/mL; MIC (Pseudomonas aeruginosa [24]): 16 µg/mL; MIC (Pseudomonas aeruginosa [25]): 16 µg/mL; MIC [26]: 4 µg/mL; MIC [27]: 4 µg/mL; MIC [28]: 4 µg/mL; MIC [29]: 4 µg/mL; MIC [30]: 16 µg/mL; MIC (Acinetobacter baumannii [31]): 4 µg/mL; MIC (Acinetobacter baumannii [32]): 8 µg/mL; MIC (Acinetobacter baumannii [33]): 8 µg/mL; MIC (Acinetobacter baumannii [34]): 8 µg/mL; MIC (Acinetobacter baumannii [35]): 4 µg/mL
